This note sets out measurements from patent US5480899A, “Oxazolidine derivatives and pharmaceutically acceptable salts thereof” (Taiho Pharmaceutical Co., Ltd., priority 1992, dated 1996).

In assay [1] the test system is sterol biosynthesis system (rat liver slices). As to the kind of experiment: Effects on sterol biosynthesis in rat liver slices ([1-14C] acetic acid incorporation). The class given is cell-based, male Wistar rat. The conditions noted are these: 37° C., 2 hours, radioactivity of sterol fraction vs control. As to the method: (§1) Effects on sterol and fatty acid biosynthesis systems obtained from a rat liver slices
(§2) Pharmacological tests were carried out according to the procedure mentioned below, referring to the following document: Endo, A., Tsujita, Y., Kuroda, M. and Tanzawa, K., Eur. J. Biochem., 77, 31-36 (1977).
(§3) The liver was extirpated from a male Wistar rat (body weight: about 200 g) immediately after sacrifice by decapitation, and sufficiently perfused with ice-cold Krebs-Ringer bicarbonate buffer solution. The liver slices (100 mg) were added to 1 ml of Krebs-Ringer bicarbonate buffer solution containing [1-^14 C] acetic acid (2 μci/μmol) and one of test compounds adjusted to various concentrations, and the reaction was carried out at 37° C. for 2 hours in 95% O2 -5% CO2 gas mixture. After cooling the reaction mixture, 2 ml of petroleum ether was added thereto to extract the sterol fraction with shaking. The extract was concentrated and 1 ml of 1% digitonin solution was added thereto. After standing, the mixture was centrifuged. The sterol fraction obtained as the sediment was washed several times with an organic solvent and dissolved in 1 ml of acetic acid. Subsequently, radioactivity of the sterol fraction was measured. Then the concentration of the test compound (IC50) was determined at which the radioactivity was inhibited by 50% compared with the radioactivity observed in the control group wherein the test compounds were not used.

The subject of assay [2] is fatty acid biosynthesis system (rat liver slices). As to the kind of experiment: Effects on fatty acid biosynthesis in rat liver slices ([1-14C] acetic acid incorporation). The format is cell-based, male Wistar rat. The conditions noted are these: 37° C., 2 hours, radioactivity of fatty acid fraction vs control. As to the method:
as §1, §2, §3
In a similar manner, the radioactivity of fatty acid fraction was determined which was obtained by treating, with hydrochloric acid, the lower layer of the petroleum ether mentioned in the above procedure.

The subject of assay [3] is serum lipid (triglyceride and cholesterol). As to the kind of experiment: Rate of decrease in serum lipid (triglyceride and cholesterol) in rats after 14-day oral administration. The format is in vivo, male Sprague-Dawley rats. The conditions noted are these: 300 mg/kg orally everyday for 14 days; 24 hours after last administration; vs control group (0.5% HPMC). As to the method: Male Sprague-Dawley rats (body weight: about 130 g) were preliminarily bred for one week, and divided into groups, each group consisting of five rats. Each of the test compounds was suspended in a 0.5% hydroxy-propylmethylcellulose (HPMC) aqueous solution, and the suspensions were orally administered to the rats at a dose of 300 mg/kg at 9:00 a.m. everyday for 14 days. […] The blood was allowed to stand and centrifuged to obtain serum. Lipid (triglyceride and cholesterol) in the obtained serum was measured by the enzymic method using an autoanalyzer.
Pharmacological activities of the test compounds were determined as the rate of decrease (%) in serum lipid compared with the control group to which only 0.5% aqueous HPMC solution was administered.

The term IC50 denotes the concentration that gives 50% inhibition. `COc1ccc(N2CC(COc3ccc(C=O)cc3)OC2=O)cc1` (stereo not drawn) [Compound 1, 4-[3-(4-methoxyphenyl)-2-oxooxazolidin-5-yl]methoxybenzaldehyde]: the figures for the IC50 in assay [1] and in assay [2] were 10.2 µM and 5.6 µM, respectively.
Turning to `O=Cc1ccc(OCC2CN(c3ccc(Br)cc3F)C(=O)O2)cc1` (stereo not drawn) [Compound 8], the IC50 in assay [1] was determined as 6.4 µM; in assay [2] it was 2.9 µM.
Regarding `O=C(O)c1ccc(OCC2CN(c3ccc([N+](=O)[O-])cc3)C(=O)O2)cc1` (stereo not drawn) [Compound 81, 4-[3-(4-nitrophenyl)-2-oxooxazolidin-5-yl]methoxybenzoic acid], the figures for the IC50 in assay [1] and in assay [2] were 3.79 µM and 1.3 µM, respectively.
Take `Cc1ccc(N2CC(COc3ccc(C(=O)O)cc3)OC2=O)cc1` (stereo not drawn) [Compound 83]: the IC50 is 5.74 µM in assay [1] and 2.89 µM in assay [2].
The like results for `O=C(O)c1ccc(OCC2CN(c3ccc(Br)cc3)C(=O)O2)cc1` (stereo not drawn) [Compound 93] were, in that order, 3.23 µM and 1.55 µM.
`O=C(O)c1ccc(OCC2CN(c3ccc(Cl)cc3Cl)C(=O)O2)cc1` (stereo not drawn) [Compound 98]: in assay [3], the “Rate of decrease in total cholesterol in serum” value came to 26.8% and the “Rate of decrease in triglyceride in serum” value came out at 65.5%.
The like results for `O=C(O)c1ccc(OCC2CN(c3ccc(Br)cc3F)C(=O)O2)cc1` (stereo not drawn) [Compound 100] were, in that order, 32.4% and 62.9%.
Turning to `O=C(O)c1ccc(OCC2CN(c3ccc(C(F)(F)F)cc3)C(=O)O2)cc1` (stereo not drawn) [Compound 101], the results for the IC50 in assay [1] and in assay [2] were 4.8 µM and 3.17 µM, respectively.
For the molecule `O=C(O)c1ccc(OCC2CN(c3ccc(OC(F)(F)F)cc3)C(=O)O2)cc1` (stereo not drawn) [Compound 108], in assay [3], the “Rate of decrease in total cholesterol in serum” value was found to be 50.4% and the “Rate of decrease in triglyceride in serum” value was 83.0%.
With `Cc1ccc(CN2CC(COc3ccc(C(=O)O)cc3)OC2=O)cc1` (stereo not drawn) [Compound 130], the IC50 in assay [1] was determined as 29.5 µM; in assay [2], 14.8 µM.
For `O=C(O)c1ccc(OC[C@H]2CN(c3ccc(C(F)(F)F)cc3)C(=O)O2)cc1` [Compound 147], in that order: 8.08 µM and 4.78 µM.
For `O=C(O)c1ccc(OC[C@H]2CN(c3ccc(Cl)cc3)C(=O)O2)cc1` [Compound 149], in that order: 3.36 µM and 1.99 µM.
The like results for `COc1ccc(N2C[C@@H](COc3ccc(C(=O)O)cc3)OC2=O)cc1` [Compound 164] were, in that order, 0.84 µM and 1.23 µM.
With `O=C(O)c1ccc(OC[C@@H]2CN(c3ccc(Cl)cc3)C(=O)O2)cc1` [Compound 165], the IC50 in assay [1] is 1.15 µM; in assay [2], 1.09 µM.
For `O=C(O)c1ccc(OCC2CN(c3ccccc3)C(=S)O2)cc1` (stereo not drawn) [Compound 171, 4-(3-phenyl-2-oxazolidinethion-5-yl)methoxybenzoic acid], in that order: 34.5 µM and 9.81 µM.
For `Cc1ccc(N2CC(COc3ccc(CO)cc3)OC2=O)cc1` (stereo not drawn) [Compound 175, 4-[3-(4-tolyl)-2-oxooxazolidin-5-yl]methoxybenzyl alcohol], in that order: 4.8 µM and 2.7 µM.
The like results for `O=C(O)c1ccc(OCC2COC(=O)N2c2ccccc2)cc1` (stereo not drawn) [Compound 180, 4-(3-phenyl-2-oxooxazolidin-4-yl)methoxybenzoic acid] were, in that order, 7.1 µM and 33.7 µM.
In the case of `O=C(O)/C=C/c1ccc(OCC2CN(c3ccc(Cl)cc3)C(=O)O2)cc1` (stereo not drawn) [Compound 183], the results for the half-inhibitory concentration (IC50) in assay [1] and in assay [2] were 17.4 µM and 5.7 µM, respectively.
Regarding `O=C(O)CCc1ccc(OCC2CN(c3ccc(Cl)cc3)C(=O)O2)cc1` (stereo not drawn) [Compound 193], the results for the IC50 in assay [1] and in assay [2] were 16.4 µM and 3.8 µM, respectively.
As to `O=C1OC(COc2ccc(CCCO)cc2)CN1c1ccc(Cl)cc1` (stereo not drawn) [Compound 194, 3-{4-[3-(4-chlorophenyl)-2-oxooxazolidin-5-yl]methoxyphenyl}propyl alcohol], the IC50 amounted to 4.8 µM in assay [1] and 4 µM in assay [2].
For `O=C1OC(COc2ccc(CCCO)cc2)CN1c1ccccc1` (stereo not drawn) [Compound 195, 3-[4-(3-phenyl-2-oxooxazolidin-5-yl)methoxyphenyl]propyl alcohol], in that order: 23.2 µM and 7.3 µM.
